{
  "source": "paper PMC6853232",
  "about": "“Discovery and evaluation of novel synthetic 5-alkyl-4-oxo-4,5-dihydro-[1,2,4]triazolo[4,3-a]quinoxaline-1-carbox-amide derivatives as anti-inflammatory agents” (Journal of Enzyme Inhibition and Medicinal Chemistry, 2019)",
  "key": {"[1]": {"system": "IL-6 production in LPS-stimulated RAW264.7 cells", "assay": "Cytokine production assay (ELISA), IL-6", "format": "cell-based, mouse", "method": "(§1) RAW264.7 cells were seeded at 3 × 10^5 cells/well in a 48-well microplate and incubated overnight.The cells were pre-treated with the different concentrations of the test compunds (3, 7.5, 10 or 30 µM) for 30 min before the stimulation with LPS (1 µg/mL). According to the protocol of the manufacturer, supernatants were harvested at the 24th hour for the assay of TNF-α or IL-6 with ELISA kits (BD Biosciences, San Diego, CA, USA). Briefly, 100 µL of biotinylated antibody reagent and the culture supernatants were added to anti-mouse TNF-α or IL-6 precoated 96-well plates, and the plates were incubated for 2 h at RT. The plate was washed with a washing buffer and subsequently incubated with 100 µL of the streptavidin-HRP solution for 1 h at RT. The plate was washed, and incubated with 100 µL of TMB substrate solution for 30 min at RT in the dark. The reaction was stopped by adding 50 µL of stop solution, and then the absorbance was measured at 450 nm by a plate reader. A standard curve was produced for each assay plate using serially diluted recombinant IL-6."}, "[2]": {"system": "phosphorylation of ERK in RAW 264.7 cells", "assay": "Western blot, LPS-induced phosphorylation of ERK", "format": "cell-based, mouse", "method": "(§2) RAW 264.7 cells (5 × 10^5 cells/well) plated onto 6-well plates were incubated for 24 h and treated with 7.5, 15.0 or 30.0 µM of compound 6p for 30 min and then stimulated with […] of LPS for 24 h. The cells were collected and washed three times with ice-cold PBS. The cells were treated with a cell lysis buffer [50 mM Tris (pH 7.6), 150 mM NaCl, 5 mM EDTA (pH 8.0), 0.6% NP-40, 1 mM Na3VO4, 20 mM β-glycerophosphate, 1 mM phenylmethylsulfonyl fluoride, 2 mM p-nitrophenyl phosphate, and 1:25 Complete Mini Protease Inhibitor cocktail (Boehringer, Mannheim,Germany)] and kept on ice for 30 min. The cell lysates were centrifuged (12,000 g at 4 °C) for 5 min to obtain a cytosolic fraction. The protein concentration was determined by BCA protein assay kit (Beyotime, Haimen, China). Aliquots of the lysates were separated on 10% sodium dodecyl sulphate (SDS)-polyacrylamide gel electrophoresis (PAGE) and then electro blotted onto a polyvinylidene difluoride (PVDF) membrane. The blots were blocked with 5% (w/v) non-fat dry milk for 2 h at 37 °C, followed by incubation with specific primary antibody at 4 °C overnight. […] Blots were again washed with TTBS and the immune active proteins were detected using ECL plus (Thermo, USA). […] Results are expressed as the relative ratio of the specific band compared with the internal reference."}, "[3]": {"system": "phosphorylation of p38 in RAW 264.7 cells", "assay": "Western blot, LPS-induced phosphorylation of p38", "format": "cell-based, mouse", "conditions": "30 µM, p < .01", "method": "as §2"}, "[4]": {"system": "TNF-α production in LPS-stimulated RAW264.7 cells", "assay": "Cytokine production assay (ELISA), TNF-α", "format": "cell-based, mouse", "method": "as §1"}, "[5]": {"system": "gastric mucosa (stomach lesions)", "assay": "Ulcerogenic effect", "format": "in vivo", "conditions": "25 mg/kg p.o. once a day for three days, rats", "method": "The lead compound D1 and the newly synthesised compound 6p were subjected to in vivo testing to measure their ulcerogenic effect in comparison to celecoxib and ibuprofen. Male albino rats (220–250 g) divided into 5 groups (control, D1, 6p, ibuprofen and celecoxib group) of five rats each. The groups with D1, 6p, ibuprofen, and celecoxib were administered oral administration (p.o.) 25 mg/kg in a vehicle of 0.5% methylcellulose, respectively. The negative control group was treated with the same vehicle (0.5% methylcellulose). All groups were orally administered once a day for three consecutive days. Animals were sacrificed by diethyl ether 6 h after the last dose and the stomach was removed. An opening at the greater curvature was made and the stomach was cleaned by washing with cold saline and inspected with a three-time magnifying lens for any evidence of hyperaemia, haemorrhage, definite haemorrhagic erosion, or ulcer. An arbitrary scale was used to calculate the ulcer index which indicates the severity of the stomach lesions The % ulceration for each group was calculated as follows: % Ulceration = Number of animals bearing ulcer in a group/Total number of animals in the same group ×100."}, "[6]": {"system": "phosphorylation of JNK in RAW 264.7 cells", "assay": "Western blot, LPS-induced phosphorylation of JNK", "format": "cell-based, mouse", "method": "as §2"}, "[7]": {"system": "COX-2 protein expression in LPS-induced RAW 264.7 cells", "assay": "Western blot, COX-2 protein expression", "format": "cell-based, mouse", "conditions": "15 µM, LPS 1 µg/mL, p < .001", "method": "The cells were collected and washed three times with ice-cold PBS. The cells were treated with a cell lysis buffer [50 mM Tris (pH 7.6), 150 mM NaCl, 5 mM EDTA (pH 8.0), 0.6% NP-40, 1 mM Na3VO4, 20 mM β-glycerophosphate, 1 mM phenylmethylsulfonyl fluoride, 2 mM p-nitrophenyl phosphate, and 1:25 Complete Mini Protease Inhibitor cocktail (Boehringer, Mannheim,Germany)] and kept on ice for 30 min. The cell lysates were centrifuged (12,000 g at 4 °C) for 5 min to obtain a cytosolic fraction. The protein concentration was determined by BCA protein assay kit (Beyotime, Haimen, China). Aliquots of the lysates were separated on 10% sodium dodecyl sulphate (SDS)-polyacrylamide gel electrophoresis (PAGE) and then electro blotted onto a polyvinylidene difluoride (PVDF) membrane. The blots were blocked with 5% (w/v) non-fat dry milk for 2 h at 37 °C, followed by incubation with specific primary antibody at 4 °C overnight. Blots were washed with Tween 20/Tris-buffered saline [TTBS, 20 mM Tris–HCl buffer, pH 7.6, containing 137 mM NaCl and 0.05% (vol/vol) Tween 20] and incubated with a peroxidase-conjugated secondary antibody for 1 h. Blots were again washed with TTBS and the immune active proteins were detected using ECL plus (Thermo, USA). […] Results are expressed as the relative ratio of the specific band compared with the internal reference."}, "[8]": {"conditions": "LPS 1 µg/mL, 24 h, different concentrations"}},
  "data": [
    {"smiles": "COc1cc(Cn2c(=O)c3nnc(C(N)=O)n3c3ccccc32)cc(OC)c1OC", "note": "[6p, 5-(3,4,5-trimethoxybenzyl)-4-oxo-4,5-dihydro-[1,2, 4]triazolo[4,3-a]quinoxaline-1-carboxamide]", "values": [
      {"measurement": "production of IL-6", "setting": "[1]; 3 µM, p < .001", "result": "significantly inhibited"},
      {"measurement": "LPS-induced increase in IL-6 levels", "setting": "[1]; [8]", "result": "inhibited in a concentration-dependent manner"},
      {"measurement": "phosphorylation of ERK", "setting": "[2]; 30 µM, p < .001", "result": "markedly diminished"},
      {"measurement": "LPS-induced phosphorylation of ERK, concentration dependence", "setting": "[2]; 7.5, 15 and 30 µM", "result": "concentration-dependent manner"},
      {"measurement": "phosphorylation of p38", "setting": "[3]", "result": "markedly diminished"},
      {"measurement": "production of TNF-α", "setting": "[4]; 3 µM, p < .001", "result": "significantly inhibited"},
      {"measurement": "LPS-induced increase in TNF-α levels", "setting": "[4]; [8]", "result": "inhibited in a concentration-dependent manner"},
      {"measurement": "% ulceration", "setting": "[5]", "result": 20, "unit": "%"},
      {"measurement": "phosphorylation of JNK", "setting": "[6]; 30 µM, p < .001", "result": "markedly diminished"},
      {"measurement": "LPS-induced phosphorylation of JNK, concentration dependence", "setting": "[6]; 7.5, 15 and 30 µM", "result": "concentration-dependent manner"},
      {"measurement": "inhibition of COX-2 protein expression", "setting": "[7]", "result": 53.44, "unit": "%"}
    ]}
  ]
}
